Measured values: patent US11344498B2, “Compositions and methods for on-demand high-efficiency triggerable anesthesia” (priority 2015, dated 2022)
Like-named read-outs stand apart in the source and are kept apart here.

Experiments:
[1] = Protocol: Animals were anesthetized with isoflurane-oxygen and injected with 50 μL of 10 mg/mL sulforhodamine B PBS solution at the sciatic nerve co-injected with or without 50 μL of 50 μg/mL DMED. […] The supernatant was collected and methanol was added at a 1:1 vol ratio. […] The concentration of sulforhodamine B was analyzed by fluorescence (excitation/emission: 560/580 nm).
Liposomal pharmacokinetics studies were performed by co-injecting 200 μL of Lipo-PS-Srho with 200 μL of Lipo or Lipo-DMED at the sciatic nerve. At predetermined time points (30 min, 3 h, 7 h and 10 h), blood was harvested by tail-bleeding.

sciatic nerve = experiment: Motor nerve block, weight-bearing test (TTX, ultrasound, microbubbles); conditions: rat, in vivo
[2] = tested on: sciatic nerves and adjacent tissues; conditions: rat, in vivo

With CCN(CC)c1ccc2c(-c3ccc(S(=O)(=O)O)cc3S(=O)(=O)[O-])c3ccc(=[N+](CC)CC)cc-3oc2c1 [Srho, sulforhodamine B] the “time to peak Srho plasma level” value ([1]; free Srho without DMED) was 30 min.
In the case of Cc1cccc([C@H](C)c2cnc[nH]2)c1C [DMED, (S)-4-[1-(2,3-Dimethylphenyl)ethyl]-3H-imidazole], the “decrease of peak Srho plasma concentration” value ([1]; rat, in vivo) was 27.5% and the “time to peak Srho plasma level” value ([1]; rat, in vivo) was 60 min.
In the case of N=C1N[C@@H](O)[C@H]2[C@@H]3OC4(O)OC(C(O)[C@@]2(N1)[C@@H]4O)[C@]3(O)CO (stereo partly drawn) [TTX, Tetrodotoxin], the “median duration of motor nerve block” value (sciatic nerve) was 0 min, the inflammation score [2] was 1 and the myotoxicity score [2] was 0.
